Test results from publication PMC12251549, “Engineering a Radiohybrid PSMA Ligand with an Albumin-Binding Moiety and Pharmacokinetic Modulation via an Albumin-Binding Competitor for Radiotheranostics” (Molecules, 2025).

Columns and labels:
[1] = In vitro stability test in 0.1 M phosphate buffer; format: physicochemical; conditions: 0.1 M PB solution containing 10% ethanol, 37 °C, 24 h, mean ± SD for three samples
Protocol: samples were analyzed by RP-HPLC using a Cosmosil 5C18-AR-II (4.6 × 150 mm) at a flow rate of 1 mL/min with a gradient mobile phase of 60% methanol in water with 0.1% trifluoroacetic acid (TFA) to 80% methanol in water with 0.1% TFA for 20 min.
In vitro stability test in 0.1 M PB solution containing 10% ethanol was performed. The […]
and 97.1 ± 0.9% (mean ± SD for three samples) after incubating at 37 °C for 24 h, […]

[2] = Biodistribution after intravenous co-injection of [125I]5 and [67Ga]Ga-PSMA-617 (Table S1); format: in vivo, normal mice (ddY); conditions: normal mice; for Biodistribution of radioactivity: Blood / Biodistribution of radioactivity: Bone / Biodistribution of radioactivity: Brain / Biodistribution of radioactivity: Heart / Biodistribution of radioactivity: Kidney / Biodistribution of radioactivity: L. Intestine / Biodistribution of radioactivity: Liver / Biodistribution of radioactivity: Lung / Biodistribution of radioactivity: Muscle / Biodistribution of radioactivity: Neck / Biodistribution of radioactivity: Pancreas / Biodistribution of radioactivity: S. Intestine / Biodistribution of radioactivity: Spleen / Biodistribution of radioactivity: Stomach: i.v.
Protocol: (§1) [^67Ga]Ga-PSMA-617 (37 kBq) and [^125I]5 (37 kBq) or [^125I]5 (37 kBq) and [^211At]6 (37 kBq) were intravenously co-administered into three or four normal mice at each timepoint (6 weeks male ddY mice, 28–30 g, Japan SLC, Inc., Hamamatsu, Japan). Mice were sacrificed at 10 min, 1 h, 4 h, and 24 h ([^67Ga]Ga-PSMA-617 and [^125I]5) or at 10 min, 1 h, 4 h, 12 h, and 24 h ([^125I]5 and [^211At]6) postinjection of the radiolabeled compounds. Tissues of interest were removed and weighed, and the radioactivity of ^67Ga and ^125I and ^125I and ^211At were determined with an auto well gamma counter (ARC-8001) and corrected for background radiation as described in the Cellular Uptake Experiments Section. To determine the amount and routes of the radioactivity excreted from the body for 24 h after the injection of radiolabeled compounds, mice were housed in metabolic cages (METABOLICA, SUGIYAMA-GEN Co., Ltd., Tokyo, Japan). Data are shown as the percentage of injected dose per gram of tissues (%ID/g) or %ID.

[3] = Biodistribution after intravenous co-injection of [125I]5 and [211At]6 (Table S2); format: in vivo, normal mice (ddY); conditions: normal mice
Protocol: as §1

O=C([O-])CN1CCN(CC(=O)[O-])CCN(CC(=O)NC(CCCCNC(=O)CCCc2ccc([125I])cc2)C(=O)NCC2CCC(C(=O)NC(Cc3ccc4ccccc4c3)C(=O)NCCCCC(NC(=O)NC(CCC(=O)O)C(=O)O)C(=O)O)CC2)CCN(CC(=O)[O-])CC1.[Ga+3] (stereo not drawn) [[^125I]5]
Radiochemical purity after incubation (in vitro stability) [1]: 97.0 ± 0.7% | Excretion in feces ([2]; 24 h postinjection): 2.3 ± 0.3 %ID | Excretion in urine ([2]; 24 h postinjection): 10.3 ± 0.7 %ID | Blood retention ([2]; compared with [67Ga]Ga-PSMA-617): significantly prolonged blood retention | Biodistribution of radioactivity: Blood ([2]; 10 min after injection): 26.76 (0.56) % injected dose per gram | Biodistribution of radioactivity: Bone ([2]; 10 min after injection): 2.56 (0.45) % injected dose per gram | Biodistribution of radioactivity: Brain ([2]; 10 min after injection): 0.66 (0.14) % injected dose per gram | Biodistribution of radioactivity: Heart ([2]; 10 min after injection): 4.87 (0.63) % injected dose per gram | Biodistribution of radioactivity: Kidney ([2]; 10 min after injection): 10.29 (0.97) % injected dose per gram | Biodistribution of radioactivity: L. Intestine ([2]; 10 min after injection): 1.10 (0.07) % injected dose per gram | Biodistribution of radioactivity: Liver ([2]; 10 min after injection): 3.89 (0.34) % injected dose per gram | Biodistribution of radioactivity: Lung ([2]; 10 min after injection): 10.56 (0.97) % injected dose per gram | Biodistribution of radioactivity: Muscle ([2]; 10 min after injection): 0.89 (0.02) % injected dose per gram | Biodistribution of radioactivity: Neck ([2]; 10 min after injection): 0.04 (0.01) % injected dose | Biodistribution of radioactivity: Pancreas ([2]; 10 min after injection): 3.05 (0.20) % injected dose per gram | Biodistribution of radioactivity: S. Intestine ([2]; 10 min after injection): 2.11 (0.10) % injected dose per gram | Biodistribution of radioactivity: Spleen ([2]; 10 min after injection): 3.22 (0.38) % injected dose per gram | Biodistribution of radioactivity: Stomach ([2]; 10 min after injection): 0.78 (0.10) % injected dose | Biodistribution of radioactivity: Blood ([2]; 1 h after injection): 16.99 (1.80) % injected dose per gram | Biodistribution of radioactivity: Bone ([2]; 1 h after injection): 2.18 (0.26) % injected dose per gram | Biodistribution of radioactivity: Brain ([2]; 1 h after injection): 0.44 (0.19) % injected dose per gram | Biodistribution of radioactivity: Heart ([2]; 1 h after injection): 4.00 (0.35) % injected dose per gram | Biodistribution of radioactivity: Kidney ([2]; 1 h after injection): 6.22 (0.27) % injected dose per gram | Biodistribution of radioactivity: L. Intestine ([2]; 1 h after injection): 1.16 (0.18) % injected dose per gram | Biodistribution of radioactivity: Liver ([2]; 1 h after injection): 2.67 (0.11) % injected dose per gram | Biodistribution of radioactivity: Lung ([2]; 1 h after injection): 9.59 (2.25) % injected dose per gram | Biodistribution of radioactivity: Muscle ([2]; 1 h after injection): 1.06 (0.06) % injected dose per gram | Biodistribution of radioactivity: Neck ([2]; 1 h after injection): 0.03 (0.01) % injected dose | Biodistribution of radioactivity: Pancreas ([2]; 1 h after injection): 2.30 (0.22) % injected dose per gram | Biodistribution of radioactivity: S. Intestine ([2]; 1 h after injection): 2.02 (0.21) % injected dose per gram | Biodistribution of radioactivity: Spleen ([2]; 1 h after injection): 2.01 (0.29) % injected dose per gram | Biodistribution of radioactivity: Stomach ([2]; 1 h after injection): 0.75 (0.08) % injected dose | Biodistribution of radioactivity: Blood ([2]; 4 h after injection): 14.52 (0.22) % injected dose per gram | Biodistribution of radioactivity: Bone ([2]; 4 h after injection): 1.57 (0.64) % injected dose per gram | Biodistribution of radioactivity: Brain ([2]; 4 h after injection): 0.30 (0.03) % injected dose per gram | Biodistribution of radioactivity: Heart ([2]; 4 h after injection): 3.97 (0.22) % injected dose per gram | Biodistribution of radioactivity: Kidney ([2]; 4 h after injection): 6.93 (0.24) % injected dose per gram | Biodistribution of radioactivity: L. Intestine ([2]; 4 h after injection): 2.03 (0.07) % injected dose per gram | Biodistribution of radioactivity: Liver ([2]; 4 h after injection): 2.76 (0.11) % injected dose per gram | Biodistribution of radioactivity: Lung ([2]; 4 h after injection): 8.37 (0.62) % injected dose per gram | Biodistribution of radioactivity: Muscle ([2]; 4 h after injection): 1.41 (0.07) % injected dose per gram | Biodistribution of radioactivity: Neck ([2]; 4 h after injection): 0.03 (0.00) % injected dose | Biodistribution of radioactivity: Pancreas ([2]; 4 h after injection): 2.33 (0.13) % injected dose per gram | Biodistribution of radioactivity: S. Intestine ([2]; 4 h after injection): 1.99 (0.14) % injected dose per gram | Biodistribution of radioactivity: Spleen ([2]; 4 h after injection): 1.59 (0.35) % injected dose per gram | Biodistribution of radioactivity: Stomach ([2]; 4 h after injection): 0.69 (0.08) % injected dose | Biodistribution of radioactivity: Blood ([2]; 24 h after injection): 9.84 (0.85) % injected dose per gram | Biodistribution of radioactivity: Bone ([2]; 24 h after injection): 1.57 (0.22) % injected dose per gram | Biodistribution of radioactivity: Brain ([2]; 24 h after injection): 0.30 (0.03) % injected dose per gram | Biodistribution of radioactivity: Heart ([2]; 24 h after injection): 2.85 (0.36) % injected dose per gram | Biodistribution of radioactivity: Kidney ([2]; 24 h after injection): 7.37 (0.99) % injected dose per gram | Biodistribution of radioactivity: L. Intestine ([2]; 24 h after injection): 1.15 (0.35) % injected dose per gram | Biodistribution of radioactivity: Liver ([2]; 24 h after injection): 1.59 (0.34) % injected dose per gram | Biodistribution of radioactivity: Lung ([2]; 24 h after injection): 6.18 (0.83) % injected dose per gram | Biodistribution of radioactivity: Muscle ([2]; 24 h after injection): 1.08 (0.11) % injected dose per gram | Biodistribution of radioactivity: Neck ([2]; 24 h after injection): 0.02 (0.00) % injected dose | Biodistribution of radioactivity: Pancreas ([2]; 24 h after injection): 1.66 (0.46) % injected dose per gram | Biodistribution of radioactivity: S. Intestine ([2]; 24 h after injection): 1.11 (0.31) % injected dose per gram | Biodistribution of radioactivity: Spleen ([2]; 24 h after injection): 1.62 (0.16) % injected dose per gram | Biodistribution of radioactivity: Stomach ([2]; 24 h after injection): 0.67 (0.13) % injected dose | In vivo dehalogenation (radioactivity in stomach and neck) [3]: minimal deiodination or deastatination | Biodistribution of radioactivity: Blood ([3]; i.v., 10 min after injection): 24.34 (0.27) % injected dose per gram | Biodistribution of radioactivity: Bone ([3]; i.v., 10 min after injection): 2.42 (0.54) % injected dose per gram | Biodistribution of radioactivity: Brain ([3]; i.v., 10 min after injection): 0.50 (0.04) % injected dose per gram | Biodistribution of radioactivity: Heart ([3]; i.v., 10 min after injection): 4.48 (0.24) % injected dose per gram | Biodistribution of radioactivity: Kidney ([3]; i.v., 10 min after injection): 5.27 (0.62) % injected dose per gram
